Source: patent US10898595B2, “Core-satellite nanocomposites for MRI and photothermal therapy” (The Regents of the University of Michigan, priority 2013, dated 2021)

System: SUM-159 tumors
Assay: In vivo PTT using IONP-IR820
Parameters: species or system mice
Details: 10 minutes
Protocol: Tumor-bearing nude mice were randomly allocated into three groups (five mice in each group) when the solid SUM-159 tumors had grown to ˜80 mm3. Mice in each group were intravenously injected with IONP-IR820 (20 mg Fe/Kg mouse body weight), the same amount of IR820, the same amount of IONPs. 24 h post injection, tumors were irradiated with a diode laser (λ=885 nm) at a laser power of 0.5 W for 10 minutes. The highest tumor surface temperature was recorded by an infrared camera (FLIR Systems, i7, Boston, Mass.) before and after application of the laser.
Mice were humanely euthanized by CO2 inhalation 24 h following a single I.V. bolus dose of nanoparticles. The harvested tissue was formalin-fixed, embedded in paraffin and sectioned. Unstained slides were dewaxed using xylene and rehydrated using graded alcohol. Rehydrated slides were stained with Hematoxylin and eosin (H&E staining) for visualization of nucleic acids and cytoplasm.

SMILES: CC1(C)C(=CC=C2CCCC(C=CC3=[N+](CCCCS(=O)(=O)[O-])c4ccc5ccccc5c4C3(C)C)=C2Cl)N(CCCCS(=O)(=O)[O-])c2ccc3ccccc3c21.[Na+] [IR820]
- Tumor tissue hemorrhaging right after laser irradiation (24 h post IV injection (20 mg Fe/Kg or same amount), 885 nm laser 0.5 W): does not have any obvious hemorrhaging
- Average temperature increase at the tumor site (24 h post IV injection, laser 0.5 W, infrared camera): 8.3±0.8 °C
